Test results: publication PMC7381750, “JP1 suppresses proliferation and metastasis of melanoma through MEK1/2 mediated NEDD4L-SP1-Integrin αvβ3 signaling” (Theranostics, 2020)

Tested on: B16F10 cell
Assay: B16F10 melanoma-bearing model, JP1 and DTIC alone or in combination
Assay type: in vivo, mouse
Description: (A-C) (A) Schematic representation of the B16F10 and MEWO cells melanoma-bearing model for JP1 treatment (n = 6 per group). JP1 and its control agents were administered by intraperitoneal injection. […] (D-G) (D) Schematic representation of the B16F10 cell melanoma passive metastasis model for JP1 treatment. JP1 and its control agents were administered by intraperitoneal injection. […] (F) The representative melanoma lung metastatic images by H&E-staining (scale bars, 1000 μm). […] (J-L) (J) Schematic representation of the B16F10 cell melanoma-bearing model (n= 6 per group). Both JP1 and DTIC alone or in combination treatments and relative control was administered by intraperitoneal injection in mice.
The chemotherapeutic agent dacarbazine (DTIC) is currently as the first line drug used to treat metastatic melanoma in clinic, and was reported to cause painful symptoms and acquired resistance, compromising patient quality of life. To determine the possibility as a combination therapy between DTIC and JP1, we completed a joint treatment of DTIC and JP1 for melanoma tumor-bearing model (Figure 2J).

## CN(C)/N=N/c1[nH]cnc1C(N)=O [DTIC, dacarbazine]
80 mg/kg DTIC i.p.
  body weight during treatment: lost body weight continuously during treatment
80 mg/kg DTIC i.p., B16F10 melanoma-bearing mouse
  inhibitory effect on melanoma proliferation: more significant inhibitory effect on melanoma proliferation than that by 50 mg/kg JP1
After DTIC treatment
  liver HE staining: significant degenerations in liver cells
